Reference: article PMC2000878, “Module structure of interphotoreceptor retinoid-binding protein (IRBP) may provide bases for its complex role in the visual cycle – structure/function study of Xenopus IRBP” (BMC Biochemistry, 2007)
Read-outs that look alike come from different tables or passages of the source.

Assays:
Xenopus IRBP Module 4 = molecular target: T1, Xenopus IRBP Module 4 (Xenopus laevis, UniProt Q7SZI7); test: Fluorometric titration (enhancement, quenching); format: binding
T1 construct: cDNAs corresponding to the full-length IRBP, module 1, and module 2 were expressed in pThioHis; modules 3 and 4 were expressed in pTrxFus; made in house; host or cells: E. coli GI724 / GI698 (pTrxFus)
Text: (§1) Enhancement of retinol fluorescence and quenching of the intrinsic protein fluorescence were used to monitor binding of all-trans retinol to the recombinant IRBPs. We previously derived an equation that is generally useful for describing such quantum yield changes that are consequent upon ligand binding. This equation has been previously applied to the analysis of binding by monitoring the enhancement of retinol fluorescence. In this case, where excitation is at 330 nm and emission is monitored at 480, the fluorescence enhancement (Fenh) depends on the total retinol concentration (Rt), the dissociation constant (Kd ^all-trans), the number of retinol-binding sites per protein molecule (N) and the total protein concentration (Pt).
(§2) Assuming that there is a single type of noninteracting site on the protein, (Fenh) is expected to be linearly related to the concentration of bound retinol molecules. Fenh is given by the relation
(§3) Fenh=C1+C2[Rtall−trans−(Rtall−trans+NPt+Kdall−trans)^2−4NPtRtall−trans] MathType@MTEF@5@5@+=feaafiart1ev1aaatCvAUfKttLearuWrP9MDH5MBPbIqV92AaeXatLxBI9gBaebbnrfifHhDYfgasaacH8akY=wiFfYdH8Gipec8Eeeu0xXdbba9frFj0=OqFfea0dXdd9vqai=hGuQ8kuc9pgc9s8qqaq=dirpe0xb9q8qiLsFr0=vr0=vr0dc8meaabaqaciaacaGaaeqabaqabeGadaaakeaacqWGgbGrdaWgaaWcbaGaemyzauMaemOBa4MaemiAaGgabeaakiabg2da9iabdoeadnaaBaaaleaacqaIXaqmaeqaaOGaey4kaSIaem4qam0aaSbaaSqaaiabikdaYaqabaGcdaWadaqaaiabdkfasnaaDaaaleaacqWG0baDaeaacqWGHbqycqWGSbaBcqWGSbaBcqGHsislcqWG0baDcqWGYbGCcqWGHbqycqWGUbGBcqWGZbWCaaGccqGHsisldaGcaaqaamaabmaabaGaemOuai1aa0baaSqaaiabdsha0bqaaiabdggaHjabdYgaSjabdYgaSjabgkHiTiabdsha0jabdkhaYjabdggaHjabd6gaUjabdohaZbaakiabgUcaRiabd6eaojabdcfaqnaaBaaaleaacqWG0baDaeqaaOGaey4kaSIaem4saS0aa0baaSqaaiabdsgaKbqaaiabdggaHjabdYgaSjabdYgaSjabgkHiTiabdsha0jabdkhaYjabdggaHjabd6gaUjabdohaZbaaaOGaayjkaiaawMcaamaaCaaaleqabaGaeGOmaidaaOGaeyOeI0IaeGinaqJaemOta4Kaemiuaa1aaSbaaSqaaiabdsha0bqabaGccqWGsbGudaqhaaWcbaGaemiDaqhabaGaemyyaeMaemiBaWMaemiBaWMaeyOeI0IaemiDaqNaemOCaiNaemyyaeMaemOBa4Maem4CamhaaaqabaaakiaawUfacaGLDbaaaaa@8490@
(§4) The equation was fit to the data by nonlinear least-squares analysis. To follow the quenching of the protein's intrinsic fluorescence the excitation and emission wavelengths were set to 280 nm and 340 nm, respectively, while the protein was titrated with all-trans retinol. For the quenching studies the inner filter effect was accounted for by graphical correction as previously described. Fluorescence measurements were made using an SLM 8000TM C photon counting spectrofluorometer corrected for wavelength dependence of source energy and detector response.

Xenopus IRBP Module 3 = molecular target: T2, Xenopus IRBP Module 3 (Xenopus laevis, UniProt Q7SZI7); test: Fluorometric titration (enhancement, quenching); format: binding
T2 construct: cDNAs corresponding to the full-length IRBP, module 1, and module 2 were expressed in pThioHis; modules 3 and 4 were expressed in pTrxFus; made in house; host or cells: E. coli GI724 / GI698 (pTrxFus)
Text: as §1, §2, §3, §4

full-length Xenopus IRBP = molecular target: T3, full-length Xenopus IRBP (Xenopus laevis, UniProt Q7SZI7); test: Fluorometric titration (ligand fluorescence enhancement, protein quenching, energy transfer); format: binding
T3 construct: We expressed the full-length IRBP as well as its individual modules as thioredoxin-fusion proteins using pTrxFus and pThioHis vectors; made in house; host or cells: E. coli Top10 (pThioHis)
Text: The binding parameters of retinoid-binding proteins including IRBP may be determined by fluorescence spectroscopy. The method utilizes changes in quantum yield occurring during ligand binding. Such changes are represented by enhancement of ligand fluorescence, quenching of intrinsic protein fluorescence, and transfer of energy from protein to bound ligand. Fluorescence enhancement occurs if the quantum yield of the ligand's fluorescence is higher in the hydrophobic environment of the ligand-binding domain compared to that outside of the domain.
as §1, with “Enhancement of retinol fluorescence and quenching of the intrinsic protein fluorescence were used to monitor binding of all-trans retinol to the recombinant IRBPs.” left out, “[…],” for “where excitation is at 330 nm and emission is monitored at 480,”
as §2, §3
The equation was fit to the data by nonlinear least-squares analysis. […] For the quenching studies the inner filter effect was accounted for by graphical correction as previously described. Fluorescence measurements were made using an SLM 8000TM C photon counting spectrofluorometer corrected for wavelength dependence of source energy and detector response.

Xenopus IRBP Module 1 = Xenopus IRBP Module 1 (Xenopus laevis, UniProt Q7SZI7); test: Fluorometric titration (enhancement, quenching); format: binding; parameters: cDNAs corresponding to the full-length IRBP, module 1, and module 2 were expressed in pThioHis; modules 3 and 4 were expressed in pTrxFus; made in house; host or cells: E. coli Top10 (pThioHis)
Text: as §1, §2, §3, §4

Xenopus IRBP Module 2 = molecular target: T4, Xenopus IRBP Module 2 (Xenopus laevis, UniProt Q7SZI7); parameters: method as in Loew et al. Exp Eye Res. 2001, 73:257–264; conditions: ref Loew et al. Exp Eye Res. 2001, 73:257–264, cited from earlier work
T4 construct: cDNAs corresponding to the full-length IRBP, module 1, and module 2 were expressed in pThioHis; modules 3 and 4 were expressed in pTrxFus; made in house; host or cells: E. coli Top10 (pThioHis)
T4 sequence (Q7SZI7 319-617 limits assumed): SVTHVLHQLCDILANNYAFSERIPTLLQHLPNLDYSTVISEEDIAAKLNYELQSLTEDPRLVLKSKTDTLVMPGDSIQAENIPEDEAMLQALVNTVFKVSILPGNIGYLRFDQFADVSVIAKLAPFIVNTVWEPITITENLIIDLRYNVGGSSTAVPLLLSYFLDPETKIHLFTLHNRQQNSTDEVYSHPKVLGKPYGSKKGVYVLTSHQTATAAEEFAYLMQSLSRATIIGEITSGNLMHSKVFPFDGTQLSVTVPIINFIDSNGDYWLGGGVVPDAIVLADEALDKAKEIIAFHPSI

[1] = 9-AS fluorescence enhancement, ex 360 nm, em 440 nm
[2] = 9-AS fluorescence enhancement, ex 360 nm, em 440 nm, read-out: Kd, Enhancement
[3] = quenching by 9-AS, ex 280 nm, em 340 nm
[4] = quenching by 9-AS, ex 280 nm, em 340 nm, read-out: Kd, Quenching

T1 sequence (Q7SZI7 923-1219): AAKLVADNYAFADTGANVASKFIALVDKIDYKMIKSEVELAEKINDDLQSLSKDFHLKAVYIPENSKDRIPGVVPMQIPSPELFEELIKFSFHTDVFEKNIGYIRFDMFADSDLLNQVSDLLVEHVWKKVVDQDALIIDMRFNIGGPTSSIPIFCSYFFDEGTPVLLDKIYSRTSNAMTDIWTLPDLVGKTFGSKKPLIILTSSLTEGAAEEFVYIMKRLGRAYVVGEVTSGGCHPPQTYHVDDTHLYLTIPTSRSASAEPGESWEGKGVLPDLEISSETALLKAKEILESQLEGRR
T3 sequence (Q7SZI7 23-1219): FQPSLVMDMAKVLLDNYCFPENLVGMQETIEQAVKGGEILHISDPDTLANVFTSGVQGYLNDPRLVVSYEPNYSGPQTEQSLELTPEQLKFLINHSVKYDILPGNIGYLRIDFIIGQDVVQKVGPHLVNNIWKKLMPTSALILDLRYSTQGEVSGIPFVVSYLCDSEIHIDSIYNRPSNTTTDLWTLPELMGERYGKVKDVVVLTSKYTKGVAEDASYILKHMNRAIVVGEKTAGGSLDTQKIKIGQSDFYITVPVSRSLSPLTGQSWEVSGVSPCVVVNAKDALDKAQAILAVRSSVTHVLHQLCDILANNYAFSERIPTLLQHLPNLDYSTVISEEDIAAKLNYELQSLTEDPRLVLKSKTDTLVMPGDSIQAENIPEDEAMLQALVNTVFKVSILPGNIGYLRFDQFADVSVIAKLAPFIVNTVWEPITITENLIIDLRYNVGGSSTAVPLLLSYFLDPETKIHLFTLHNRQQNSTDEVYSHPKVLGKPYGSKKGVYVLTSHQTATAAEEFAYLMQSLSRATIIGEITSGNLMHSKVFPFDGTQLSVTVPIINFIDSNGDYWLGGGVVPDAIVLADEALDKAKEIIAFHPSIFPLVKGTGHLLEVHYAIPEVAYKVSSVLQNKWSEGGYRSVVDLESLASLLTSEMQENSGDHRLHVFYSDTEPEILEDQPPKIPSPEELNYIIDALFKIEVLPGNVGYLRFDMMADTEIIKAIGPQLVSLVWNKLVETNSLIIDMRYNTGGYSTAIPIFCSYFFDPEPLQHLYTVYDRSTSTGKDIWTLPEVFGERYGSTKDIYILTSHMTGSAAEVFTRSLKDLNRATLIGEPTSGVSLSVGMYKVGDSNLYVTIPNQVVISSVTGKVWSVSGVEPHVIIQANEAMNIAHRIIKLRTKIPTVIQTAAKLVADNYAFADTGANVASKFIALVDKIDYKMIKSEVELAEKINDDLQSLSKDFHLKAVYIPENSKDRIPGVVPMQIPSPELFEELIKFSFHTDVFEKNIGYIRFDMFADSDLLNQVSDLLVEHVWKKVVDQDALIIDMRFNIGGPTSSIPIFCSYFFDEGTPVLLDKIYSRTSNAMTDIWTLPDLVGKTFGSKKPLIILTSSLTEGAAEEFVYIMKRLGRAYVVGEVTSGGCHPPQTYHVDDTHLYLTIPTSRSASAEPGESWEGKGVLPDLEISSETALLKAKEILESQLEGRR
T2 sequence (Q7SZI7 616-922): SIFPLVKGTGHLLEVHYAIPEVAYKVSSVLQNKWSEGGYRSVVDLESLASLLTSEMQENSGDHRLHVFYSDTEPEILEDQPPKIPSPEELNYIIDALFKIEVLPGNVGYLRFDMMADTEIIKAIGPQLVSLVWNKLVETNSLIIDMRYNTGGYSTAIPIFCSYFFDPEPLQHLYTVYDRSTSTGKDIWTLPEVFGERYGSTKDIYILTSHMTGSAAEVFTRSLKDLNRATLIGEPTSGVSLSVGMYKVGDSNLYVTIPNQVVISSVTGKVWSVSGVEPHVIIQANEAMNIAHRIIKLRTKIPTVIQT
Chain of Xenopus IRBP Module 1 (Q7SZI7 23-315): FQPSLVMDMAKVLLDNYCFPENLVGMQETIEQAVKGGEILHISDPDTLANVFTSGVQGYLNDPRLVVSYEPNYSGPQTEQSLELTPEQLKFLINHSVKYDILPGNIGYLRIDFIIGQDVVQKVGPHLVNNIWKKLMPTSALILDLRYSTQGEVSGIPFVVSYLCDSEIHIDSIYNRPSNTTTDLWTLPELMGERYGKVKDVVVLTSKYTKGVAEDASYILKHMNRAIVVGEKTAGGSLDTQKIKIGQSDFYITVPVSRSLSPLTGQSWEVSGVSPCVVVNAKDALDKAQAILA

Binding sites (N), Enhancement (Xenopus IRBP Module 4; [1]): 2.23 ± 0.09 | Kd (Xenopus IRBP Module 4; [2]): 82 ± 37 nM | Binding sites (N), Quenching (Xenopus IRBP Module 4; [3]): 0.30 ± 0.09 | Kd (Xenopus IRBP Module 4; [4]): 160 ± 40 nM | Binding sites (N), Enhancement (Xenopus IRBP Module 3; [1]): 2.76 ± 0.09 | Kd (Xenopus IRBP Module 3; [2]): 160 ± 410 nM | Binding sites (N), Quenching (Xenopus IRBP Module 3; [3]): 1.06 ± 0.07 | Kd (Xenopus IRBP Module 3; [4]): 190 ± 30 nM | Binding sites (N), Enhancement (full-length Xenopus IRBP; [1]): 2.58 ± 0.17 | Kd (full-length Xenopus IRBP; [2]): 280 ± 70 nM | Binding sites (N), Quenching (full-length Xenopus IRBP; quenching of protein fluorescence by 9-AS, ex 280 nm, em 340 nm): 0.18 ± 0.29 | Kd (full-length Xenopus IRBP; quenching of protein fluorescence by 9-AS, ex 280 nm, em 340 nm, read-out: Kd, Quenching): 290 ± 110 nM | Binding sites (N), Enhancement (Xenopus IRBP Module 1; [1]): 2.55 ± 0.24 | Kd (Xenopus IRBP Module 1; [2]): 330 ± 150 nM | Binding sites (N), Quenching (Xenopus IRBP Module 1; [3]): 0.97 ± 0.19 | Kd (Xenopus IRBP Module 1; [4]): 420 ± 100 nM
Structure (SMILES): CCCCCCCCCC(CCCCCCCC(=O)O)OC(=O)c1c2ccccc2cc2ccccc12 (centres unmarked) [9-AS, 9-(9-anthroyloxy) stearic acid]
Binding sites (N), Enhancement (Xenopus IRBP Module 2; [1]): 1.49 ± 0.15 | Kd (Xenopus IRBP Module 2; [2]): 250 ± 80 nM | Binding sites (N), Quenching (Xenopus IRBP Module 2; [3]): 0.93 ± 0.06 | Kd (Xenopus IRBP Module 2; [4]): 130 ± 20 nM
